The source made the active and inactive calls. The rule behind the calls is not given here.
Legend:
Assay type in all cases: functional, organism-based
Leishmania infantum [1] = assay: Antiparasitic activity against promastigotes of Leishmania infantum MHOM-TN-80-IPT1 assessed as decrease in parasite vitality at 1 to 5 mM measured at 4th day by microscopic analysis
Leishmania infantum [2] = assay: Increase in vitality of Leishmania infantum MHOM-TN-80-IPT1 promastigotes at 1 to 5 mM measured at 7th day by microscopic analysis
Leishmania infantum [3] = assay: Increase in density of Leishmania infantum MHOM-TN-80-IPT1 promastigotes at 1 to 5 mM measured at 7th day by microscopic analysis
Leishmania infantum [4] = assay: Antiparasitic activity against promastigotes of Leishmania infantum MHOM-TN-80-IPT1 assessed as decrease in parasite density at 1 to 5 mM measured at 4th day by microscopic analysis
Leishmania infantum [5] = assay: Antiparasitic activity against promastigotes of Leishmania infantum MHOM-TN-80-IPT1 assessed as decrease in parasite density up to 3 mM measured at 4th and 7th day by microscopic analysis
Leishmania infantum [6] = assay: Antiparasitic activity against promastigotes of Leishmania infantum MHOM-TN-80-IPT1 assessed as decrease in promastigote vitality at 5 mM by counting chamber
Leishmania infantum [7] = assay: Antiparasitic activity against promastigotes of Leishmania infantum MHOM-TN-80-IPT1 assessed as decrease in parasite density at 1 to 5 mM measured at 4th and 7th day by microscopic analysis

NCCCCC=O
inhibition (Leishmania infantum [1]): Active
Activity (Leishmania infantum [2]): Active
Activity (Leishmania infantum [3]): Active
inhibition (Leishmania infantum [4]): Active

NCCCNCCCC=O
inhibition (Leishmania infantum [5]): Active

O=CCCNCCCCNCCC=O
inhibition (Leishmania infantum [6]): Active
inhibition (Leishmania infantum [7]): Active

NCCCC=O
inhibition (Leishmania infantum [1]): Active
Activity (Leishmania infantum [2]): Active
Activity (Leishmania infantum [3]): Active
inhibition (Leishmania infantum [4]): Active

Source: ChEMBL document CHEMBL3045587, “Oxidation of di- and polyamines: in vitro effect of amino aldehydes on the vitality of Leishmania promastigotes” (Med Chem Res, 2010)
